Read-outs that look alike come from different tables or passages of the source. Blank lines part the entries; values can stand above or below the compound they belong to.
Experiments:
[1] = Change over time in stability in PBS (phosphate buffer); format: physicochemical; conditions: 100 μg/ml in PBS, 37° C.
Protocol: Vinaxanthone (SPF-3059-5) and SPF-3059-1 were each dissolved in PBS (Dulbecco's PBS(-)) to a concentration of 100 μg/ml. The obtained solutions were preserved at 37° C., and the amount of the agent remaining in the solution was quantified by HPLC in individual time points from initiation of the preservation until 4 weeks after initiation of the preservation, so that a change over time in the remaining percentages was examined. The same HPLC conditions as those of Example 10 were applied.

[2] = Solubility (physicochemical properties of isolated compounds); conditions: water, hexane, methanol, DMSO
[3] = biological target: T1, mouse semaphorin 3A (Sema3A) (Mus musculus, UniProt O08665); experiment: Inhibitory activity on collapse activity of Sema3A (growth cone retraction, chicken embryo dorsal root ganglion); format: cell-based
T1 sequence (O08665 21-772): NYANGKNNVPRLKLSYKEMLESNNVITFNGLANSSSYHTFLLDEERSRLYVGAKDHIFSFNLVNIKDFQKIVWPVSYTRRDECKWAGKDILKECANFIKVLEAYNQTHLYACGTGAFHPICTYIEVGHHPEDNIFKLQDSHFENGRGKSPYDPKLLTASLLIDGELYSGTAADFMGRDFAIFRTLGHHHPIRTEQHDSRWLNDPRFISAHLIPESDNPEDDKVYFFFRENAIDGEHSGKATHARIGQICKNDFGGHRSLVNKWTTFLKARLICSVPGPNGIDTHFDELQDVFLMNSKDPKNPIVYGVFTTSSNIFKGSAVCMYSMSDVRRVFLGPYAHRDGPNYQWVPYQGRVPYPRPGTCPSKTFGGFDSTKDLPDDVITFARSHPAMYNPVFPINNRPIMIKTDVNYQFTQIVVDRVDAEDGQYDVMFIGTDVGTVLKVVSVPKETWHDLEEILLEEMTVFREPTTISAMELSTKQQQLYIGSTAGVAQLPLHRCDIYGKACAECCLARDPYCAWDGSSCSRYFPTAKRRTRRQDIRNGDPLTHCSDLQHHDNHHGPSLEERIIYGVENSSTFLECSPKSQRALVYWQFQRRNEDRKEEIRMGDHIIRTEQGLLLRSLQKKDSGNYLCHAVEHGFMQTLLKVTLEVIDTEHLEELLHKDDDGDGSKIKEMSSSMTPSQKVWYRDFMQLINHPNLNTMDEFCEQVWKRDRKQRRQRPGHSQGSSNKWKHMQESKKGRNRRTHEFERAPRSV
Protocol: A polylysine-coated 96-well plate (Sumitomo Bakelite Co., Ltd.) was further coated with laminin (20 μg/ml laminin, room temperature, 1 hour). Then, 100 μl of a medium (F12 medium containing 10% fetal bovine serum, 20 ng/ml NGF, 100 units/ml penicillin, and 100 μg/ml streptomycin) was added to each well. Thereafter, a dorsal root ganglion excised from a 7-day-old chicken embryo was inoculated into the resulting well, and the obtained mixture was then cultured under conditions consisting of 16 to 20 hours, 5% CO2 and 37° C. Thereafter, the compounds described in Example 3 above were each added in different concentrations to the resulting culture, and the obtained mixture was then cultured for 1 hour. Thereafter, 2 units/ml mouse semaphorin 3A (Sema3A) was added to the culture, and the obtained mixture was further cultured for 1 hour. One hour after initiation of the culture, glutaraldehyde was added to the culture, such that it promptly could reach a final concentration of 1%. Then, the obtained mixture was then left at a room temperature for 15 minutes to fix a tissue section. Thereafter, the percentage of the retracted growth cone was measured under a microscope. A well, to which no Sema3A had been added, was used as a control. The percentage of growth cone retraction in a negative control group (to which neither the compound nor Sema3A was added) was defined as (A)%; the percentage of growth cone retraction in a positive control group (to which the compound had not been added but Sema3A was added) was defined as (B)%; and the percentage of growth cone retraction in a test group (to which both the compound and Sema3A were added) was defined as (C)%. The concentration of each compound that held the formula C=(A+B)/2 was defined as an IC50 value.

[4] = Retention of vinaxanthone in corneal tissues after eye drops administration; format: in vivo; conditions: rabbit
Protocol: Rabbits (Kbs: JW, healthy, male, body weight: 2.00 to 2.49 kg) were each administered with 50 μL of a PBS solution (0.12 M phosphate buffer (pH 7.4)) of vinaxanthone (0.5, 1.5 and 5.0 mg/mL) via eye drops administration onto the cornea of the right eye, and their eyes were then closed for 30 seconds. Thereafter, 0.5, 2, and 6 hours after completion of the administration, the rabbits were subjected to euthanasia, and the excised eyeballs were then washed with a normal saline. Thereafter, the cornea was collected from each eyeball. The cornea was homogenized, and vinaxanthone was then extracted therefrom. A change over time in the content and concentration of vinaxanthone in the corneal tissues was examined using HPLC.

[5] = test system: corneal sensory nerve in corneal graft; experiment: Mouse keratoplasty model: regeneration of nerve fibers in corneal graft, corneal sensitivity, corneal vascularization; format: in vivo; conditions: vs control group
Text: In this experiment, there were used genetically modified mice (P0-Cre/Floxed-EGFP mouse), in which corneal parenchymal cells, corneal endothelial cells, and nerves expressed a type of fluorescent protein, Green Fluorescent Protein (GFP), in the cornea. Using these mice, corneal sensory nerve fibers traveling in the cornea can easily be observed by removing a layer of corneal endothelial cells.
The cornea derived from a syngeneic wild-type mouse was transplanted into each of the above-mentioned mice. Thereafter, 50 ul of vinaxanthone (which had been dissolved in Rinderon (1 mg/ml betamethasone sodium phosphate injection solution) to a concentration of 0.1 mg/mL) was administered to the mice via subconjunctival injection immediately after completion of the operation and then, every two days in a total of 11 times. Only a solvent containing no drugs was administered in the same amount as described above to a control group. The removal of the suture was conducted one week after completion of the operation. Three weeks after completion of the operation, corneal sensitivity was evaluated, the mice were then subjected to euthanasia, and eyeballs were then excised. A comparison was made regarding the regeneration of nerve fibers in the corneal graft. Corneal sensitivity was evaluated by measuring corneal sensitivity in the center of the corneal graft every week after completion of the operation, using a Cochet-Bonnet corneal esthesiometer. […]
Thereafter, a total of the lengths thereof were measured, and a comparison was then made between the vinaxanthone administration group and the control group.

Time until decomposed in an almost total amount in PBS [1]: approximately 1 week
SMILES: CC(=O)c1c(C)c(C(=O)C2COc3cc(O)c(O)c(C(=O)O)c3C2=O)cc2c(=O)c3c(C(=O)O)c(O)c(O)cc3oc12 (centres unmarked) [SPF-3059-1, reference compound]

SMILES: CC(=O)c1cc2c(=O)c3cc(O)c(O)cc3oc2c(C(C)=O)c1-c1coc2cc(O)c(O)cc2c1=O [SPF-3059-26]
Solubility [2]: Insoluble in water and hexane, soluble in methanol and DMSO

IC50 ([3]; 2 units/ml mouse Sema3A, 7-day-old chicken embryo dorsal root ganglion, read-out: IC50 (inhibition of Sema3A-induced growth cone retraction)): < 188 nM
SMILES: CC(=O)c1cc2c(=O)c3cc(O)c(O)cc3oc2c(C(C)=O)c1-c1coc2cc(O)c(O)c(C(=O)O)c2c1=O [SPF-3059-2]

concentration at 6 h ([4]; male, Kbs: JW, cornea, topical, 5 mg/mL (50 μL eye drop), 50 μL eye drops of 5.0 mg/mL PBS solution, 6 hours after administration, read-out: Concentration of vinaxanthone retained in the cornea): > 75 ng/mL | Time for which the concentration in the cornea considered necessary for the expression of drug effects was retained ([4]; eye drop of 0.5 mg/mL solution): 0.5 h | IC50 ([3]; as quoted in Example 2, converted from ng/mL, read-out: IC50 value obtained by the in vitro experiment (inhibitory activity on the collapse activity of Sema3A in Example 4) (converted)): 130 nM | IC50 ([3]; as quoted in Example 2, read-out: IC50 value obtained by the in vitro experiment (inhibitory activity on the collapse activity of Sema3A in Example 4) (converted)): 130 nM | Vascularization into the corneal graft (total length of CD31-positive newly formed blood vessels) ([5]; three weeks after operation, no significant difference): not promoted | Time for which the compound was stable in PBS [1]: ≥ 4 weeks | Remaining percentage in PBS ([1]; until 4 weeks after initiation of the preservation, HPLC): ≥ 96%
SMILES: CC(=O)c1cc2c(=O)c3c(C(=O)O)c(O)c(O)cc3oc2c(C(C)=O)c1-c1coc2cc(O)c(O)c(C(=O)O)c2c1=O [SPF-3059-5, vinaxanthone]
Transfer into the corneal tissues ([4]; eye drops 0.5, 1.5 and 5.0 mg/mL): transferred into the corneal tissues in an applied concentration/dose dependent manner | Regeneration of nerve fibers in the corneal graft (total length of regenerated fibers) ([5]; 50 ul of 0.1 mg/mL subconjunctival injection, every two days, 11 times, three weeks after operation, p<0.01): promoted | Corneal sensitivity in the center of the corneal graft (Cochet-Bonnet corneal esthesiometer, blink reflection) ([5]; three weeks after completion of the operation, p<0.01): improved

SMILES: CC(=O)c1cc2c(=O)c3c(C(=O)O)cc(O)cc3oc2c(C(C)=O)c1-c1coc2cc(O)c(O)c(C(=O)O)c2c1=O [SPF-3059-4]
Solubility [2]: Insoluble in water and hexane, soluble in methanol and DMSO

SMILES: CC(=O)c1cc2c(=O)c3c(C(=O)O)c(O)c(O)cc3oc2c(C(C)=O)c1-c1coc2cc(O)cc(C(=O)O)c2c1=O [SPF-3059-12]
Solubility [2]: Insoluble in water and hexane, soluble in methanol and DMSO

SMILES: CC(=O)c1cc2c(=O)c3c(C(=O)O)c(O)c(O)cc3oc2c(C(C)=O)c1-c1coc2cc(O)c(O)cc2c1=O [SPF-3059-24]
Solubility [2]: Insoluble in water and hexane, soluble in methanol and DMSO

SMILES: CC(=O)c1cc2c(=O)c3c(C(=O)O)cc(O)cc3oc2c(C(C)=O)c1-c1coc2cc(O)c(O)cc2c1=O [SPF-3059-25]
Solubility [2]: Insoluble in water and hexane, soluble in methanol and DMSO

— US20140018416A1, “THERAPEUTIC AGENT FOR CORNEAL SENSORY NERVE DAMAGE CONTAINING SEMAPHORIN INHIBITOR AS ACTIVE INGREDIENT” (DAINIPPON SUMITOMO PHARMA CO., LTD, priority 2011, published 2014)
